Experiments:
Assay in all cases: radiometric filter-binding kinase assay
CaMK1 (human) = CaMK1 (human) (UniProt Q14012)
CSNK1D (human) = CSNK1D (human) (UniProt P48730)
RIPK2 (human) = RIPK2 (human) (UniProt O43353)
MAPK9 (human) = MAPK9 (human) (UniProt P45984)
CAMKK2 (human) = CAMKK2 (human) (UniProt Q96RR4)
AURKB (human) = AURKB (human) (UniProt Q96GD4)
EPHB3 (human) = EPHB3 (human) (UniProt P54753)
IKBKB (human) = IKBKB (human) (UniProt O14920)
MAPKAPK5 (human) = MAPKAPK5 (human) (UniProt Q8IW41)
YES1 (human) = YES1 (human) (UniProt P07947)
MAPK15 (human) = MAPK15 (human) (UniProt Q8TD08)
MAPK14 (human) = MAPK14 (human) (UniProt Q16539)
EPHB2 (human) = EPHB2 (human) (UniProt P29323)
CSK (human) = CSK (human) (UniProt P41240); conditions: compound 0.1 µM
BTK (human) = BTK (human) (UniProt Q06187)
MAP2K2 (human) = MAP2K2 (human) (UniProt P36507)
MAP3K7 TAB1 (human) = MAP3K7 TAB1 (human) (UniProt Q15750+O43318)
PIM1 (human) = PIM1 (human) (UniProt P11309)
MAPKAPK2 (human) = MAPKAPK2 (human) (UniProt P49137)
MINK1 (human) = MINK1 (human) (UniProt Q8N4C8)
MAP3K11 (human) = MAP3K11 (human) (UniProt Q16584)
MAPK8 (human) = MAPK8 (human) (UniProt P45983)
MELK (human) = MELK (human) (UniProt Q14680)
HIPK2 (human) = HIPK2 (human) (UniProt Q9H2X6)
IGF1R (human) = IGF1R (human) (UniProt P08069)
IKBKE (human) = IKBKE (human) (UniProt Q14164)
MAPK12 (human) = MAPK12 (human) (UniProt P53778)
MKNK2 (human) = MKNK2 (human) (UniProt Q9HBH9)
EPHA4 (human) = EPHA4 (human) (UniProt P54764)
PRKACA (human) = PRKACA (human) (UniProt P17612)
DYRK1A (human) = DYRK1A (human) (UniProt Q13627)
PAK7 (human) = PAK7 (human) (UniProt Q9P286)
DYRK2 (human) = DYRK2 (human) (UniProt Q92630)
PAK4 (human) = PAK4 (human) (UniProt O96013)
BRSK1 (human) = BRSK1 (human) (UniProt Q8TDC3)
Chain of BRSK1 (human) (Q8TDC3 whole entry, looked up): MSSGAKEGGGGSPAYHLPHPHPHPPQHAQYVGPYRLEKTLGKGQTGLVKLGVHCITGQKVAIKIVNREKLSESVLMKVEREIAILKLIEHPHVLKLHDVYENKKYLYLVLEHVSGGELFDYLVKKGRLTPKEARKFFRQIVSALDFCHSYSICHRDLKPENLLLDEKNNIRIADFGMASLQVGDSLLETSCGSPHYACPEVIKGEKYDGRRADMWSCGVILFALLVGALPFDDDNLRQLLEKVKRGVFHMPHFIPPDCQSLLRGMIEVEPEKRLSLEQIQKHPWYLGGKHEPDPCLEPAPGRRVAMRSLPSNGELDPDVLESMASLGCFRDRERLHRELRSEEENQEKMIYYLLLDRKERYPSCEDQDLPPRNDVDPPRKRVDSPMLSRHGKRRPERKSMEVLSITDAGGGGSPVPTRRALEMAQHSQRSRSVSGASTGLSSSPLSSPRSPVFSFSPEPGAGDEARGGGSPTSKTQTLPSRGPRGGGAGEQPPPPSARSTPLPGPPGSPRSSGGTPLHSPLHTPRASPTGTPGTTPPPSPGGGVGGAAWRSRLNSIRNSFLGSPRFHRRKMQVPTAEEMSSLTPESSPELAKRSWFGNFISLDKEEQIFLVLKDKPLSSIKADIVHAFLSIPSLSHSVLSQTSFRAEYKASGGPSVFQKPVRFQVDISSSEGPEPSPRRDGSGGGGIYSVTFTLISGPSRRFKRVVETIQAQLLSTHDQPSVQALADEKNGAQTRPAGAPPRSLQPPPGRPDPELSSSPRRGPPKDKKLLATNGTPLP

Chain of EPHB2 (human) (P29323 whole entry, looked up): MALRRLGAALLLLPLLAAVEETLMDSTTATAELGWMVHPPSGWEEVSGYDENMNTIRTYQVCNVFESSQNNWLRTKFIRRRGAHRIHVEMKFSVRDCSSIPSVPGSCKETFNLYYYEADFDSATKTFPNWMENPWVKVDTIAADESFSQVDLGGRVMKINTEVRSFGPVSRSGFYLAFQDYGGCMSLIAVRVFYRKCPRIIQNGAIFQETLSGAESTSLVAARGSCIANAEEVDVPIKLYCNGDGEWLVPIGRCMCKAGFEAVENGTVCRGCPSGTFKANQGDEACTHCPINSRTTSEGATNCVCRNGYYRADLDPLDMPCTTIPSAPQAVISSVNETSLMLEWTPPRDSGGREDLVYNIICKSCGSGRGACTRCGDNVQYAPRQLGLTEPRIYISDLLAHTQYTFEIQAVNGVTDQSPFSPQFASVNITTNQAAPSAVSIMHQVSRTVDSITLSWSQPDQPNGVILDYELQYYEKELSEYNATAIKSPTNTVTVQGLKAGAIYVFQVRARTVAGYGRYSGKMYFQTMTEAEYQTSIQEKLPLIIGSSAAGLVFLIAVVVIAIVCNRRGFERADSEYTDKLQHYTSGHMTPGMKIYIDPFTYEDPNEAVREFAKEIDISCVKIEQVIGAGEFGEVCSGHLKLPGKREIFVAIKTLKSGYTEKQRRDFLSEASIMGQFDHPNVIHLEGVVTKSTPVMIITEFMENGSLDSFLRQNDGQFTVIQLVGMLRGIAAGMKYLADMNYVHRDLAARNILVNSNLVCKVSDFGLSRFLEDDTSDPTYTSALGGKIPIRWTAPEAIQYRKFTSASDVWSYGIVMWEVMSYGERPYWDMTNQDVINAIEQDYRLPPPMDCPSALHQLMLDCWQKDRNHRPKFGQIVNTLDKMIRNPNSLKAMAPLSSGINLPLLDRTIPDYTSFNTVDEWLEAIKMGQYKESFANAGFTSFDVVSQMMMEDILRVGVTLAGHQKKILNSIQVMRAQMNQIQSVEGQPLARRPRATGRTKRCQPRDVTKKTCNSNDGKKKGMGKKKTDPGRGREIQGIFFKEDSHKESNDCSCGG
Chain of CaMK1 (human) (Q14012 whole entry, looked up): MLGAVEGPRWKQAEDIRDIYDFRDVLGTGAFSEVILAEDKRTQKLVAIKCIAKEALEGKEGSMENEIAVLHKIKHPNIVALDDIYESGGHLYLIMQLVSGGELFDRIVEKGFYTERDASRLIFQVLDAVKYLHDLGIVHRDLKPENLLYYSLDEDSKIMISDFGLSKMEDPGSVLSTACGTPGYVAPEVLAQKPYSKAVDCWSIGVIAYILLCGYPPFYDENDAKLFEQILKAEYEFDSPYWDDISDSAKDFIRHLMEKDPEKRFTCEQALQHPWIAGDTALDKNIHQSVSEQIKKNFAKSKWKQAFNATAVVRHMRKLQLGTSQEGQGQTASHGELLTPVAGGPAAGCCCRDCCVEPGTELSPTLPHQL
Chain of MELK (human) (Q14680 whole entry, looked up): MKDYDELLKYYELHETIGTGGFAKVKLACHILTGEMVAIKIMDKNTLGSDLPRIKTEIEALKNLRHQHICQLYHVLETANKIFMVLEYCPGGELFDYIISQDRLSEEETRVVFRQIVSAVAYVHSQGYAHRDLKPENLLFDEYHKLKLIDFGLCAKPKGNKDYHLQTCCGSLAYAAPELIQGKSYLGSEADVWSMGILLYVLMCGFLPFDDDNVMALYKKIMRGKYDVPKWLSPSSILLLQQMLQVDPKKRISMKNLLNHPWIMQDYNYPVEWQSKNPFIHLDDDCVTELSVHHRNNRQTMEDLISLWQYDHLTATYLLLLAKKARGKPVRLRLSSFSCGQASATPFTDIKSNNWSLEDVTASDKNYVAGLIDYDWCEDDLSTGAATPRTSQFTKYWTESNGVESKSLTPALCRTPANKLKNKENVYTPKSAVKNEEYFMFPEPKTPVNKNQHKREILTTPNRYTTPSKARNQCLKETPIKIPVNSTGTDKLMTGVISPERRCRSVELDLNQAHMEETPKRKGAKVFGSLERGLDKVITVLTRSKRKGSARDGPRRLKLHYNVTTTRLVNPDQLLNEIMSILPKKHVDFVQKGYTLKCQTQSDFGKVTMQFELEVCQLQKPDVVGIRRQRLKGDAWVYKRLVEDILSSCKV
Chain of HIPK2 (human) (Q9H2X6 whole entry, looked up): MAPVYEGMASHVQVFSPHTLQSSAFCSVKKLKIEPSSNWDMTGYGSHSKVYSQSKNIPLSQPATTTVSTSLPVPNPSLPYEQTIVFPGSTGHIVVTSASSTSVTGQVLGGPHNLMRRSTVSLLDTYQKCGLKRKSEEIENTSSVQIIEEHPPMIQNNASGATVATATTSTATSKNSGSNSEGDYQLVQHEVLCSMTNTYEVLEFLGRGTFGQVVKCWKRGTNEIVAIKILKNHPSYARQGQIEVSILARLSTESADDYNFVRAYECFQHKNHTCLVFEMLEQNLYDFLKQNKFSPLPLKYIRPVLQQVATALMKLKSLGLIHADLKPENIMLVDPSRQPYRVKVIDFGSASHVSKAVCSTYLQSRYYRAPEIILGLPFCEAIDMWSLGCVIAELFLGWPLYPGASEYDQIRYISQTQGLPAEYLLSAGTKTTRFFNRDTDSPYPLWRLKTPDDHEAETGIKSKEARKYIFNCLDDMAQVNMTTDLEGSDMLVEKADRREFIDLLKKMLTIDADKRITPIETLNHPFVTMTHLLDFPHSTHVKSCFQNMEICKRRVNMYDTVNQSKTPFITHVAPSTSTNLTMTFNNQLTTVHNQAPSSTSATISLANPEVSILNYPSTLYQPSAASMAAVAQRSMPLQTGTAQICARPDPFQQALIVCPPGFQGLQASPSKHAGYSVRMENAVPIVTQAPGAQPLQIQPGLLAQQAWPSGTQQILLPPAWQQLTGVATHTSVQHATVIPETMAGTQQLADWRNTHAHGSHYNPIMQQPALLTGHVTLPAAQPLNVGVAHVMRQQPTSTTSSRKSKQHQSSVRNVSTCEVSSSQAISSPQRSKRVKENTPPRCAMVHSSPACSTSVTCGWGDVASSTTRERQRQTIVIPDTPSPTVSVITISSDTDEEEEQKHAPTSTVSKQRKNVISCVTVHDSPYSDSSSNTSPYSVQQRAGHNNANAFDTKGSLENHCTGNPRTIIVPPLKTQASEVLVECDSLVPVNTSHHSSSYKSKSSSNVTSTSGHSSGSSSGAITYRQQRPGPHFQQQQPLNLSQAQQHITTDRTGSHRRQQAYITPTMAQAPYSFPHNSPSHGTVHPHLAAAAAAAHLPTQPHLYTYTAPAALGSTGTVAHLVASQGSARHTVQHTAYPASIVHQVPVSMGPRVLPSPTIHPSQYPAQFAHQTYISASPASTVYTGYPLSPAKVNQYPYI
Chain of MAPK15 (human) (Q8TD08 whole entry, looked up): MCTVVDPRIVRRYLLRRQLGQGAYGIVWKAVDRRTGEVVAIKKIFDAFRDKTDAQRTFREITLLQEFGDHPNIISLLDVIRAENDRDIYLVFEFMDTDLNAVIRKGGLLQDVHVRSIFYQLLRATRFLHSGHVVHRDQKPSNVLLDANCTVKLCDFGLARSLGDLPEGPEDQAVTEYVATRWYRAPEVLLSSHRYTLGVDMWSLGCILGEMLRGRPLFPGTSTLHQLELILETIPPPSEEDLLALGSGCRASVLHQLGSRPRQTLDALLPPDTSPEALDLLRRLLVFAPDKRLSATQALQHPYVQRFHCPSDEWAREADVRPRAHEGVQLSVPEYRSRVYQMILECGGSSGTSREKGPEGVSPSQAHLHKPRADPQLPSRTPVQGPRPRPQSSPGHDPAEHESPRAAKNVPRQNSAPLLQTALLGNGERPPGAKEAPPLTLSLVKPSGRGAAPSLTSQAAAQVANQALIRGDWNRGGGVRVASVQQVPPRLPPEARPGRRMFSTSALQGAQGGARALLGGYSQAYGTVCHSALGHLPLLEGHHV
Chain of PIM1 (human) (P11309 whole entry, looked up): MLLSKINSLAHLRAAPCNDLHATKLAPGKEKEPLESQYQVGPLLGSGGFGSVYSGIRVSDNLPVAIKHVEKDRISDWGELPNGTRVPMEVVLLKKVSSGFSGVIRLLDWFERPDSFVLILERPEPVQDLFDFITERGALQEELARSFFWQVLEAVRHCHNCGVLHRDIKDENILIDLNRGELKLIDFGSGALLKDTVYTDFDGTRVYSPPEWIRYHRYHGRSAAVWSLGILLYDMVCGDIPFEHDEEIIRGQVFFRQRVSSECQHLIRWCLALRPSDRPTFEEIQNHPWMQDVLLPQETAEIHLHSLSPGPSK

COc1cc(O)c2c(c1)[C@H]1OC1C[C@H](O)[C@H](O)C(=O)/C=C\C[C@H](C)OC2=O (stereo partly drawn)
residual activity (CaMK1 (human); compound 0.01 µM): 96%
residual activity (CaMK1 (human); compound 0.1 µM): 96%
residual activity (CaMK1 (human); compound 1.0 µM): 112%
residual activity (CSNK1D (human); compound 0.01 µM): 116%
residual activity (CSNK1D (human); compound 0.1 µM): 101%
residual activity (RIPK2 (human); compound 0.01 µM): 104%
residual activity (RIPK2 (human); compound 0.1 µM): 102%
residual activity (RIPK2 (human); compound 1.0 µM): 85%
residual activity (MAPK9 (human); compound 0.01 µM): 105%
residual activity (MAPK9 (human); compound 0.1 µM): 106%
residual activity (MAPK9 (human); compound 1.0 µM): 99%
residual activity (CAMKK2 (human); compound 0.01 µM): 102%
residual activity (CAMKK2 (human); compound 0.1 µM): 99%
residual activity (AURKB (human); compound 0.01 µM): 90%
residual activity (AURKB (human); compound 0.1 µM): 92%
residual activity (AURKB (human); compound 1.0 µM): 107%
residual activity (EPHB3 (human); compound 0.01 µM): 118%
residual activity (EPHB3 (human); compound 0.1 µM): 130%
residual activity (EPHB3 (human); compound 1.0 µM): 92%
residual activity (IKBKB (human); compound 0.01 µM): 103%
residual activity (IKBKB (human); compound 0.1 µM): 100%
residual activity (IKBKB (human); compound 1.0 µM): 112%
residual activity (MAPKAPK5 (human); compound 0.01 µM): 74%
residual activity (MAPKAPK5 (human); compound 0.1 µM): 72%
residual activity (MAPKAPK5 (human); compound 1.0 µM): 32%
residual activity (YES1 (human); compound 0.01 µM): 87%
residual activity (YES1 (human); compound 0.1 µM): 85%
residual activity (MAPK15 (human); compound 0.01 µM): 80%
residual activity (MAPK15 (human); compound 0.1 µM): 27%
residual activity (MAPK15 (human); compound 1.0 µM): 11%
residual activity (MAPK14 (human); compound 0.01 µM): 108%
residual activity (MAPK14 (human); compound 0.1 µM): 105%
residual activity (MAPK14 (human); compound 1.0 µM): 105%
residual activity (EPHB2 (human); compound 0.01 µM): 124%
residual activity (EPHB2 (human); compound 0.1 µM): 118%
residual activity (EPHB2 (human); compound 1.0 µM): 115%
residual activity (CSK (human)): 105%
residual activity (BTK (human); compound 0.01 µM): 105%
residual activity (BTK (human); compound 0.1 µM): 115%
residual activity (BTK (human); compound 1.0 µM): 109%
residual activity (MAP2K2 (human); compound 0.01 µM): 74%
residual activity (MAP2K2 (human); compound 0.1 µM): 21%
residual activity (MAP2K2 (human); compound 1.0 µM): 9%
residual activity (MAP3K7 TAB1 (human); compound 0.01 µM): 101%
residual activity (MAP3K7 TAB1 (human); compound 0.1 µM): 48%
residual activity (MAP3K7 TAB1 (human); compound 1.0 µM): 2%
residual activity (PIM1 (human); compound 0.01 µM): 90%
residual activity (PIM1 (human); compound 0.1 µM): 87%
residual activity (PIM1 (human); compound 1.0 µM): 92%
residual activity (MAPKAPK2 (human); compound 0.01 µM): 93%
residual activity (MAPKAPK2 (human); compound 0.1 µM): 101%
residual activity (MINK1 (human); compound 0.01 µM): 106%
residual activity (MINK1 (human); compound 0.1 µM): 111%
residual activity (MINK1 (human); compound 1.0 µM): 102%
residual activity (MAP3K11 (human); compound 0.1 µM): 102%
residual activity (MAP3K11 (human); compound 1.0 µM): 90%
residual activity (MAPK8 (human); compound 0.01 µM): 104%
residual activity (MAPK8 (human); compound 0.1 µM): 98%
residual activity (MAPK8 (human); compound 1.0 µM): 80%
residual activity (MELK (human); compound 0.01 µM): 92%
residual activity (MELK (human); compound 0.1 µM): 100%
residual activity (MELK (human); compound 1.0 µM): 104%
residual activity (HIPK2 (human); compound 0.01 µM): 96%
residual activity (HIPK2 (human); compound 0.1 µM): 86%
residual activity (HIPK2 (human); compound 1.0 µM): 72%
residual activity (IGF1R (human); compound 0.01 µM): 103%
residual activity (IGF1R (human); compound 0.1 µM): 100%
residual activity (IKBKE (human); compound 0.01 µM): 108%
residual activity (IKBKE (human); compound 0.1 µM): 105%
residual activity (IKBKE (human); compound 1.0 µM): 92%
residual activity (MAPK12 (human); compound 0.01 µM): 100%
residual activity (MAPK12 (human); compound 0.1 µM): 105%
residual activity (MKNK2 (human); compound 0.01 µM): 91%
residual activity (MKNK2 (human); compound 0.1 µM): 62%
residual activity (MKNK2 (human); compound 1.0 µM): 44%
residual activity (EPHA4 (human); compound 0.01 µM): 109%
residual activity (EPHA4 (human); compound 0.1 µM): 122%
residual activity (EPHA4 (human); compound 1.0 µM): 107%
residual activity (PRKACA (human); compound 0.01 µM): 91%
residual activity (PRKACA (human); compound 0.1 µM): 99%
residual activity (PRKACA (human); compound 1.0 µM): 100%
residual activity (DYRK1A (human); compound 0.01 µM): 98%
residual activity (DYRK1A (human); compound 0.1 µM): 105%
residual activity (DYRK1A (human); compound 1.0 µM): 101%
residual activity (PAK7 (human); compound 0.01 µM): 102%
residual activity (PAK7 (human); compound 0.1 µM): 115%
residual activity (DYRK2 (human); compound 0.01 µM): 109%
residual activity (DYRK2 (human); compound 0.1 µM): 105%
residual activity (PAK4 (human); compound 0.01 µM): 81%
residual activity (PAK4 (human); compound 0.1 µM): 100%
residual activity (BRSK1 (human); compound 0.01 µM): 90%
residual activity (BRSK1 (human); compound 0.1 µM): 90%
residual activity (BRSK1 (human); compound 1.0 µM): 82%

Source: the kinase profiling compilation of Christmann-Franck et al. (2016)
